From patent publication US8962639B2, “Potassium channel modulators” (AbbVie Inc., priority 2009, dated 2015) come the findings set out here.

A value given as a limit tells only on which side of the number the result lay.

This assay addresses T1, human KCNQ2 and KCNQ3 (Homo sapiens, UniProt O43525+O43526).
T1 construct: expressed in transfected cells; host or cells: HEK293
The assay can be described thus: KCNQ 2/3 channel activation, thallium flux FLIPR assay (BTC-AM dye) in HEK293 cells. The format is cell-based. The settings on record: for Emax: HEK293, maximum response relative to response of retigabine at 10 μM set at 100%, read-out: Max response; for EC50: HEK293 cells stably expressing human KCNQ2 and KCNQ3, compound incubated 4 minutes, Tl+ flux fluorescence; for Max response: maximum response relative to response of retigabine at 10 μM set at 100%. Here is the method:
The following example describes the assay that can be used to identify compounds that activate KCNQ 2/3 channels.
HEK293 cells stably expressing human KCNQ2 and KCNQ3 were seeded in 96-well, black-walled, clear-bottomed, poly-D-lysine coated plates (BD Biosciences, Bedford, Mass.) at a density of 1×10^5 cells per well 24 hours before the assay. On the assay day, BTC-AM dye (Invitrogen, Carlsbad, Calif.) was loaded into the cells by replacing the cell culture medium with 100 μL/well of 4 μM dye in DPBS. Dye loading was allowed to proceed for 2 hours at room temperature and then cells were washed twice in 100 μL/well of assay buffer (in mM: 10 HEPES pH 7.3, 5 glucose, 140 Na-gluconate, 2.5 K-gluconate, 3.6 Ca-gluconate, 2 MgSO4, 0.1 Ouabain) to remove unloaded dye. Cells were incubated in 50 μL of assay buffer before loading onto a FLIPR system (Molecular Devices, Sunnyvale, Calif.). Various concentrations of compounds to be assayed were added to the cells in 50 μL of assay buffer and incubated for 4 minutes. The fluorescence signal was initiated by adding 100 μL of assay buffer containing 6 mM TlNO3 and 10 mM K2SO4. Fluors were excited using the 488-nm line of an argon laser and emission was filtered using a 540±30 nm bandpass filter. Fluorescent signals were recorded for 3 minutes. Responses over baseline values were plotted versus concentrations of test compounds to obtain an EC50 value. The maximum response for each test compound was determined relative to the response produced at 10 μM by retigabine. The maximum response of retigabine at 10 μM was set at 100%.

T1 sequence (O43526 whole entry): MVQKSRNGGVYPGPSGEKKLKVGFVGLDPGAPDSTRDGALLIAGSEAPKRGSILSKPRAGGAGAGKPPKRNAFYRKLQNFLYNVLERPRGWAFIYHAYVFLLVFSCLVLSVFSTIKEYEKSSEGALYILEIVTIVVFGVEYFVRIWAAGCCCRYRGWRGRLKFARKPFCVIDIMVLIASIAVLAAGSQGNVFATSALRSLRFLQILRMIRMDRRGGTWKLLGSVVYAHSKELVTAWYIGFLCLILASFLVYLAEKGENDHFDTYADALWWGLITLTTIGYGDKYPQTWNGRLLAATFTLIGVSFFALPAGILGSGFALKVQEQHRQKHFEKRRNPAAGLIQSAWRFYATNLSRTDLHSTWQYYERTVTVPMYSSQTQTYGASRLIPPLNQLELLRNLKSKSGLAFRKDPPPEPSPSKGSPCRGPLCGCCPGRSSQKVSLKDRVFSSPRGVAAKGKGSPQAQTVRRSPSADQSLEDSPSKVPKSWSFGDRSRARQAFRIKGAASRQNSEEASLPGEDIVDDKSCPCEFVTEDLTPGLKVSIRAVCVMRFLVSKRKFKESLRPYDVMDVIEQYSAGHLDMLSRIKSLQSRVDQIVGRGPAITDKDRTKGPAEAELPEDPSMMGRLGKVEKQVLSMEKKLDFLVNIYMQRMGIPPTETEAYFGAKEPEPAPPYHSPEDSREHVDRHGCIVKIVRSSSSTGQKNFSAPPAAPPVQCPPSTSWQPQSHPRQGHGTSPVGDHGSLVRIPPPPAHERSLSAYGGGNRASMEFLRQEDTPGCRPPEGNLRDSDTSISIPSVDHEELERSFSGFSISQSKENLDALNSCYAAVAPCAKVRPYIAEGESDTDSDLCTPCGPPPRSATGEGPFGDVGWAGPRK
T1 sequence (O43525 whole entry): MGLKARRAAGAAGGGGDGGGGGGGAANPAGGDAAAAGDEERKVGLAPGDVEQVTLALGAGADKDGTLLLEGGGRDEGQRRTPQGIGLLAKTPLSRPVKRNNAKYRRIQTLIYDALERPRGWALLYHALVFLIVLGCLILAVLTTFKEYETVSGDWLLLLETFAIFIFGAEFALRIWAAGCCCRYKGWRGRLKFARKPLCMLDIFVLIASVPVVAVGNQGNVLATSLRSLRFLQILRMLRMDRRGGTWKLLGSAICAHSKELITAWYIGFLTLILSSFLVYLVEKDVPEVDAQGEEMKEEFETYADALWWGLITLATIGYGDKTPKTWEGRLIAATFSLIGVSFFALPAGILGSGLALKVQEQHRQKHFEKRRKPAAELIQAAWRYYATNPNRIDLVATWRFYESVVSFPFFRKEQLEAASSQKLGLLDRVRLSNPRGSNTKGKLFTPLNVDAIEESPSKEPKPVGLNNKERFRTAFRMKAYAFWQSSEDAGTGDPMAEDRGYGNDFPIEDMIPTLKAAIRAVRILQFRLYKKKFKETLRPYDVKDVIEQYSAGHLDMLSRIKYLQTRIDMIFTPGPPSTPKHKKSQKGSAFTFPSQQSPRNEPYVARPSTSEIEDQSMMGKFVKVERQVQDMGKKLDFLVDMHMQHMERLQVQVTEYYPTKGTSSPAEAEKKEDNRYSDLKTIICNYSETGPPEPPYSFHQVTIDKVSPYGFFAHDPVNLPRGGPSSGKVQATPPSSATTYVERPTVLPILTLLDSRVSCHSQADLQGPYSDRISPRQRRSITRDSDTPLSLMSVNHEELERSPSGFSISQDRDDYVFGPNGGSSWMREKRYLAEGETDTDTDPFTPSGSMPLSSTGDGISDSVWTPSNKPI

`Cc1cc2c(=O)n(NC(=O)CC34CC5CC(CC(C5)C3)C4)c(C)nc2s1` [Example 47, 2-(1-adamantyl)-N-(2,6-dimethyl-4-oxothieno[2,3-d]pyrimidin-3(4H)-yl)acetamide]: the Emax is 56.7% and it took 652 nM to reach a half-maximal effect (EC50).
Turning to `CC(C)c1nc2ccccc2c(=O)n1NC(=O)[C@@H]1[C@H]2[C@@H]3CC[C@@H](C3)[C@@H]12` [Example 59, (exo,exo)-N-(2-isopropyl-4-oxoquinazolin-3(4H)-yl)tricyclo[3.2.1.0^2,4]octane-3-carboxamide], the Emax is 16.5% and the half-maximal effective concentration (EC50) (as a rule, the midpoint of the concentration-response curve) was greater than 31600 nM.
Regarding `O=C(Nn1c(-c2ccccc2)nc2ccccc2c1=O)[C@H]1C[C@@H]2C=C[C@H]1C2` (racemic) [Example 34, (±)-(exo)-N-(4-oxo-2-phenylquinazolin-3(4 H)-yl)bicyclo[2.2.1]hept-5-ene-2-carboxamide], the Emax was determined as 4.46% and the EC50 came out at 17300 nM.
In the same order, the values of `CC(C)c1nc2cc(-c3ccccc3F)sc2c(=O)n1NC(=O)CC1CC2CCC1C2` (racemic) [Example 41, (±)-2-[(exo)-bicyclo[2.2.1]hept-2-yl]-N-[6-(2-fluorophenyl)-2-isopropyl-4-oxothieno[3,2-d]pyrimidin-3(4H)-yl]acetamide] are 17% and greater than 30000 nM.
With `CCc1nc2ccccc2c(=O)n1NC(=O)CC1C2CCCC1CCC2` (stereo not shown) [Example 57, 2-bicyclo[3.3.1]non-9-yl-N-(2-ethyl-4-oxoquinazolin-3(4H)-yl)acetamide], the Emax came out at 148% and the EC50 came to 344 nM.
In the same order, the values of `CC(C)c1nc2ccccc2c(=O)n1NC(=O)[C@H]1C[C@@H]2C=C[C@H]1C2` (racemic) [Example 32, (±)-(exo)-N-(2-isopropyl-4-oxoquinazolin-3(4H)-yl)bicyclo[2.2.1]hept-5-ene-2-carboxamide] are 99.2% and 2230 nM.
As to `CC(C)c1nc2ccccc2c(=O)n1NC(=O)C[C@@H]1C[C@@H]2CC(=O)C[C@@H](C2)C1` [Example 60], the Emax was 58% and the EC50 is greater than 31600 nM.
In the same order, the values of `O=C(CC12CC3CC(CC(Cl)(C3)C1)C2)Nn1c(C2CC2)nc2ccccc2c1=O` [Example 51, 2-[3-chloro-1-adamantyl]-N-(2-cyclopropyl-4-oxoquinazolin-3(4H)-yl)acetamide] are 152% and 160 nM.
With `CC(C)c1nc2ccccc2c(=O)n1NC(=O)CC1CC2CCC1C2` (racemic) [Example 42, (±)-2-[(endo)-bicyclo[2.2.1]hept-2-yl]-N-(2-isopropyl-4-oxoquinazolin-3(4H)-yl)acetamide], the midpoint of the response, the EC50, lay at 86.8 nM and the Max response is recorded as 150%.
In the case of `CC(C)c1nc2ccccc2c(=O)n1NC(=O)[C@@H]1C[C@@H]2C=C[C@H]1C2` (racemic) [Example 31, (±)-(endo)-N-(2-isopropyl-4-oxoquinazolin-3(4H)-yl)bicyclo[2.2.1]hept-5-ene-2-carboxamide], the Emax was determined as 140% and the response was half-maximal at 415 nM (EC50).
Regarding `CC(C)c1nc2ccccc2c(=O)n1NC(=O)CC1CC2CCC1C2` (racemic) [Example 11, (±)-exo-2-bicyclo[2.2.1]hept-2-yl-N-(2-isopropyl-4-oxoquinazolin-3(4H)-yl)acetamide], the response was half-maximal at 90.6 nM (EC50) and the Max response worked out at 175%.
For `O=C(Nn1c(-c2ccccc2)nc2ccccc2c1=O)C1CC2CCC1C2` (racemic) [Example 23, (±)-endo-N-(4-oxo-2-phenylquinazolin-3(4H)-yl)bicyclo[2.2.1]heptane-2-carboxamide], the Emax worked out at 34.3% and the EC50 worked out at 540 nM.
For `CC(C)Sc1nc2sc(-c3ccccc3)cc2c(=O)n1NC(=O)CC12CC3CC(CC(C3)C1)C2` [Example 40, 2-(1-adamantyl)-N-[2-(isopropylthio)-4-oxo-6-phenylthieno[2,3-d]pyrimidin-3(4H)-yl]acetamide], in that order: 19.2% and greater than 30000 nM.
Take `O=C(CC12CC3CC(CC(C3)C1)C2)Nn1cnc2sc(-c3ccccc3)cc2c1=O` [Example 37, 2-(1-adamantyl)-N-(4-oxo-6-phenylthieno[2,3-d]pyrimidin-3(4H)-yl)acetamide]: the Emax was found to be 9.51% and the EC50 was greater than 30000 nM.
In the same order, the values of `O=C(C[C@H]1C[C@@H]2CC[C@H]1C2)Nn1c(C2CC2)nc2cc(F)ccc2c1=O` (racemic) [Example 61, (±)-2-[(exo)-bicyclo[2.2.1]hept-2-yl]-N-(2-cyclopropyl-7-fluoro-4-oxoquinazolin-3(4H)-yl)acetamide] are 145% and 30.7 nM.
In the same order, the values of `O=C(CC12CC3CC(CC(C3)C1)C2)Nn1c(=O)[nH]c2ccccc2c1=O` [Example 28, 2-(1-adamantyl)-N-(2,4-dioxo-1,4-dihydroquinazolin-3(2H)-yl)acetamide] are 93.3% and 1750 nM.
In the same order, the values of `CC(C)c1nc2ccccc2c(=O)n1NC(=O)CC1CC2C=CC1C2` (racemic) [Example 18, (±)-endo-2-bicyclo[2.2.1]hept-5-en-2-yl-N-(2-isopropyl-4-oxoquinazolin-3(4H)-yl)acetamide] are 163% and 747 nM.
For the molecule `Cc1nc2sc3c(c2c(=O)n1NC(=O)CC12CC4CC(CC(C4)C1)C2)CCC3` [Example 45, 2-(1-adamantyl)-N-(2-methyl-4-oxo-6,7-dihydro-4H-cyclopenta[4,5]thieno[2,3-d]pyrimidin-3(5H)-yl)acetamide], the Emax was 19.6% and the concentration for a half-maximal effect (EC50) was greater than 31600 nM.
For the molecule `CCc1nc2ccccc2c(=O)n1NC(=O)CC1CC2CCC1C2` (racemic) [Example 43, (±)-2-[(endo)-bicyclo[2.2.1]hept-2-yl]-N-(2-ethyl-4-oxoquinazolin-3(4 H)-yl)acetamide], the Emax was 150% and it took 386 nM to reach a half-maximal effect (EC50).
`O=C(CC12CC3CC(CC(C3)C1)C2)Nn1cnc2scc(-c3ccc(F)cc3)c2c1=O` [Example 27, 2-(1-adamantyl)-N-[5-(4-fluorophenyl)-4-oxothieno[2,3-d]pyrimidin-3(4H)-yl]acetamide]: the Emax is 199% and the 50% effective concentration (EC50) is 846 nM.
For `O=C(CC12CC3CC(CC(C3)C1)C2)Nn1cnc2ccccc2c1=O` [Example 7, 2-(1-adamantyl)-N-(4-oxoquinazolin-3(4H)-yl)acetamide], in that order: 133% and 116 nM.
For `CC(C)c1nc2ccccc2c(=O)n1NC(=O)CC1CC2CCC1C2` (single isomer, unassigned; (-)) [Example 29, (−)-exo-2-[bicyclo[2.2.1]hept-2-yl]-N-(2-isopropyl-4-oxoquinazolin-3(4H)-yl)acetamide], in that order: 136% and 16.7 nM.
In the same order, the values of `CCc1nc2sccc2c(=O)n1NC(=O)CC1CC2CCC1C2` (racemic) [Example 24, (±)-exo-2-bicyclo[2.2.1]hept-2-yl-N-(2-ethyl-4-oxothieno[2,3-d]pyrimidin-3(4H)-yl)acetamide] are 158% and 1130 nM.
